In patent US10836725B2, “Modulators of the integrated stress pathway” (Calico Life Sciences LLC, priority 2016, dated 2020):

What follows are compounds tested on ATF4 luciferase reporter (assay: ATF4-Luc assay in HEK293T cells carrying the ATF4 luciferase reporter (in vitro model of VWMD)). Conditions: Homo sapiens, HEK-293T, 1 μg/mL tunicamycin, 7 hours, luminescence (One Glo).
Format: cell-based, human
Protocol: In order to test exemplary compounds of the invention in a cellular context, a stable VWMD cell line was first constructed. The ATF4 reporter was prepared by fusing the human full-length ATF4 5′-UTR (NCBI Accession No. BC022088.2) in front of the firefly luciferase (FLuc) coding sequence lacking the initiator methionine as described in Sidrauski et al (eLife 2013). The construct was used to produce recombinant retroviruses using standard methods and the resulting viral supernatant was used to transduce HEK293T cells, which were then subsequently selected with puromycin to generate a stable cell line.
HEK293T cells carrying the ATF4 luciferase reporter were plated on polylysine coated 384-well plates (Greiner Bio-one) at 30,000 cells per well. Cells were treated the next day with 1 μg/mL tunicamycin and 200 nM of a compound of Formula (I) for 7 hours. Luminescence was measured using One Glo (Promega) as specified by the manufacturer. Cells were maintained in DMEM with L-glutamine supplemented with 10% heat-inactivated FBS (Gibco) and Antibiotic-Antimycotic solution (Gibco).
Table 2 below summarizes the EC50 data obtained using the ATF4-Luc assay for exemplary compounds of the invention.

Compound | EC50 [nM]
O=C(COc1ccc(Cl)c(F)c1)NC12CCC(C(=O)NCc3cccc(Cl)c3)(CC1)C(O)C2 (stereo not drawn) [Compound 131, 4-[2-(4-chloro-3-fluorophenoxy)acetamido]-N-[(3-chlorophenyl)methyl]-2-hydroxybicyclo[2.2.2]octane-1-carboxamide] | 250 to 500
O=C(COc1ccc(Cl)c(F)c1)NC12CCC(C(=O)NCc3ccc(Cl)cc3)(CC1)C(O)C2 (stereo not drawn) [Compound 132, 4-[2-(4-chloro-3-fluorophenoxy)acetamido]-N-[(4-chlorophenyl)methyl]-2-hydroxybicyclo[2.2.2]octane-1-carboxamide] | < 250
O=C(COc1ccc(Cl)c(F)c1)NC12CCC(C(=O)NCc3ccc(OC(F)(F)F)cc3)(CC1)C(O)C2 (stereo not drawn) [Compound 133, 4-[2-(4-chloro-3-fluorophenoxy)acetamido]-2-hydroxy-N-{[4-(trifluoromethoxy)phenyl]methyl}bicyclo[2.2.2]octane-1-carboxamide] | < 250
CN(C)c1ccc(CNC(=O)C23CCC(NC(=O)COc4ccc(Cl)c(F)c4)(CC2)CC3O)cc1 (stereo not drawn) [Compound 134, 4-[2-(4-chloro-3-fluorophenoxy)acetamido]-N-{[4-(dimethylamino)phenyl]methyl}-2-hydroxybicyclo[2.2.2]octane-1-carboxamide] | < 250
O=C(COc1ccc(Cl)c(F)c1)NC12CCC(C(=O)NCc3cccc(C(F)(F)F)c3)(CC1)C(O)C2 (stereo not drawn) [Compound 135, 4-[2-(4-chloro-3-fluorophenoxy)acetamido]-2-hydroxy-N-{[3-(trifluoromethyl)phenyl]methyl}bicyclo[2.2.2]octane-1-carboxamide] | < 250
O=C(COc1ccc(Cl)c(F)c1)NC12CCC(C(=O)NCc3cccc(OC(F)(F)F)c3)(CC1)C(O)C2 (stereo not drawn) [Compound 136, 4-[2-(4-chloro-3-fluorophenoxy)acetamido]-2-hydroxy-N-{[3-(trifluoromethoxy)phenyl]methyl}bicyclo[2.2.2]octane-1-carboxamide] | 500 to 1000
CC(C)(C)c1ccc(CNC(=O)C23CCC(NC(=O)COc4ccc(Cl)c(F)c4)(CC2)CC3O)cc1 (stereo not drawn) [Compound 137, N-[(4-tert-butylphenyl)methyl]-4-[2-(4-chloro-3-fluorophenoxy)acetamido]-2-hydroxybicyclo[2.2.2]octane-1-carboxamide] | 500 to 1000
O=C(COc1ccc(Cl)c(F)c1)NC12CCC(C(=O)NCCc3ccc(C(F)(F)F)cc3)(CC1)C(O)C2 (stereo not drawn) [Compound 138, 4-[2-(4-chloro-3-fluorophenoxy)acetamido]-2-hydroxy-N-{2-[4-(trifluoromethyl)phenyl]ethyl}bicyclo[2.2.2]octane-1-carboxamide] | < 250
O=C(COc1ccc(Cl)c(F)c1)NC12CCC(C(=O)NCc3ccccn3)(CC1)C(O)C2 (stereo not drawn) [Compound 139] | 1000 to 2000
CC(NC(=O)C12CCC(NC(=O)COc3ccc(Cl)c(F)c3)(CC1)CC2O)c1cccnc1 (stereo not drawn) [Compound 140, 4-[2-(4-chloro-3-fluorophenoxy)acetamido]-2-hydroxy-N-[1-(pyridin-3-yl)ethyl]bicyclo[2.2.2]octane-1-carboxamide] | > 2000
N#Cc1ccc(CNC(=O)C23CCC(NC(=O)COc4ccc(Cl)c(F)c4)(CC2)CC3O)nc1 (stereo not drawn) [Compound 141, 4-[2-(4-chloro-3-fluorophenoxy)acetamido]-N-[(5-cyanopyridin-2-yl)methyl]-2-hydroxybicyclo[2.2.2]octane-1-carboxamide] | < 250
Cc1ccc(CNC(=O)C23CCC(NC(=O)COc4ccc(Cl)c(F)c4)(CC2)CC3O)nc1 (stereo not drawn) [Compound 142, 4-[2-(4-chloro-3-fluorophenoxy)acetamido]-2-hydroxy-N-[(5-methylpyridin-2-yl)methyl]bicyclo[2.2.2]octane-1-carboxamide] | 500 to 1000
Cc1ccnc(CNC(=O)C23CCC(NC(=O)COc4ccc(Cl)c(F)c4)(CC2)CC3O)c1 (stereo not drawn) [Compound 143, 4-[2-(4-chloro-3-fluorophenoxy)acetamido]-2-hydroxy-N-[(4-methylpyridin-2-yl)methyl]bicyclo[2.2.2]octane-1-carboxamide] | < 250
O=C(COc1ccc(Cl)c(F)c1)NC12CCC(C(=O)NCc3cnccn3)(CC1)C(O)C2 (stereo not drawn) [Compound 144] | > 2000
CN(Cc1ccc(C(F)(F)F)cc1)C(=O)C12CCC(NC(=O)COc3ccc(Cl)c(F)c3)(CC1)CC2O (stereo not drawn) [Compound 145, 4-[2-(4-chloro-3-fluorophenoxy)acetamido]-2-hydroxy-N-methyl-N-{[4-(trifluoromethyl)phenyl]methyl}bicyclo[2.2.2]octane-1-carboxamide] | < 250
O=C(COc1ccc(Cl)c(F)c1)NC12CCC(C(=O)NCc3ccc(OC(F)F)cn3)(CC1)C(O)C2 (stereo not drawn) [Compound 146, 4-[2-(4-chloro-3-fluorophenoxy)acetamido]-N-{[5-(difluoromethoxy)pyridin-2-yl]methyl}-2-hydroxybicyclo[2.2.2]octane-1-carboxamide] | < 250
O=C(COc1ccc(Cl)c(F)c1)NC12CC(C(=O)NCc3ccc(OC(F)F)cn3)(C1)C2 [Compound 147, 3-[2-(4-chloro-3-fluorophenoxy)acetamido]-N-{[5-(difluoromethoxy)pyridin-2-yl]methyl}bicyclo[1.1.1]pentane-1-carboxamide] | 250 to 500
O=C(COc1ccc(Cl)c(Cl)c1)NC12CC(C(=O)NCc3ccc(OC(F)F)cn3)(C1)C2 [Compound 148, 3-[2-(3,4-dichlorophenoxy)acetamido]-N-{[5-(difluoromethoxy)pyridin-2-yl]methyl}bicyclo[1.1.1]pentane-1-carboxamide] | < 250
O=C(COc1ccc(Cl)c(F)c1)NC12CC(C(=O)NCc3ccc(C(F)(F)F)nc3)(C1)C2 [Compound 149, 3-[2-(4-chloro-3-fluorophenoxy)acetamido]-N-{[6-(trifluoromethyl)pyridin-3-yl]methyl}bicyclo[1.1.1]pentane-1-carboxamide] | 250 to 500
O=C(COc1ccc(Cl)c(Cl)c1)NC12CC(C(=O)NCc3ccc(C(F)(F)F)nc3)(C1)C2 [Compound 150, 3-[2-(3,4-dichlorophenoxy)acetamido]-N-{[6-(trifluoromethyl)pyridin-3-yl]methyl}bicyclo[1.1.1]pentane-1-carboxamide] | < 250
Cc1cc(CNC(=O)C23CC(NC(=O)COc4ccc(Cl)c(F)c4)(C2)C3)n(C)n1 [Compound 151, 3-[2-(4-chloro-3-fluorophenoxy)acetamido]-N-[(1,3-dimethyl-1H-pyrazol-5-yl)methyl]bicyclo[1.1.1]pentane-1-carboxamide] | > 2000
Cc1nn(C)cc1CNC(=O)C12CC(NC(=O)COc3ccc(Cl)c(F)c3)(C1)C2 [Compound 152, 3-[2-(4-chloro-3-fluorophenoxy)acetamido]-N-[(1,3-dimethyl-1H-pyrazol-4-yl)methyl]bicyclo[1.1.1]pentane-1-carboxamide] | > 2000
O=C(COc1ccc(Cl)c(F)c1)NC12CC(C(=O)NCCc3ccccn3)(C1)C2 [Compound 153, 3-[2-(4-chloro-3-fluorophenoxy)acetamido]-N-[2-(pyridin-2-yl)ethyl]bicyclo[1.1.1]pentane-1-carboxamide] | > 2000
Cc1cc(CNC(=O)C23CC(NC(=O)COc4ccc(Cl)c(Cl)c4)(C2)C3)n(C)n1 [Compound 154, 3-[2-(3,4-dichlorophenoxy)acetamido]-N-[(1,3-dimethyl-1H-pyrazol-5-yl)methyl]bicyclo[1.1.1]pentane-1-carboxamide] | > 2000
